Consider ten compounds from patent publication US10118916B2, “Modulators of cystic fibrosis transmembrane conductance regulator protein” (AbbVie S.à.r.l., priority 2016, dated 2018).

pEC50: −log10 of the molar value.

The test concerns the target T1, F508delCFTR (Homo sapiens, UniProt P13569, DEL508-508).
T1 construct: expressed in transfected cells; host or cells: CFBE41o- (human lung derived epithelial cell line), doxycycline-inducible
The experiment in a line: Cell Surface Expression-Horse Radish Peroxidase (CSE-HRP) assay. The class given is cell-based. To be noted: CFBE41o-F508delCFTR-HRP cells; for pEC50: F508delCFTR cell surface expression, luminescence, 18-24 hours at 33° C., highest concentration 20 μM; for Maximum % activity: maximum at any tested concentration, normalized to on-plate positive control (3 μM). A digest of the protocol:
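CFBE41o- cells expressing doxycycline-induced (0.5 μg/mL, 72 h at 37 °C) F508delCFTR with HRP in the fourth extracellular loop; compounds 8 points, 3-fold from 20 μM, 18-24 h at 33 °C. Surface HRP measured by luminol luminescence, normalised to DMSO and 3 μM reference corrector; EC50 from variable-slope sigmoidal fit of triplicate plates.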

T1 sequence (P13569 with tags, fused parts or gaps DEL508-508): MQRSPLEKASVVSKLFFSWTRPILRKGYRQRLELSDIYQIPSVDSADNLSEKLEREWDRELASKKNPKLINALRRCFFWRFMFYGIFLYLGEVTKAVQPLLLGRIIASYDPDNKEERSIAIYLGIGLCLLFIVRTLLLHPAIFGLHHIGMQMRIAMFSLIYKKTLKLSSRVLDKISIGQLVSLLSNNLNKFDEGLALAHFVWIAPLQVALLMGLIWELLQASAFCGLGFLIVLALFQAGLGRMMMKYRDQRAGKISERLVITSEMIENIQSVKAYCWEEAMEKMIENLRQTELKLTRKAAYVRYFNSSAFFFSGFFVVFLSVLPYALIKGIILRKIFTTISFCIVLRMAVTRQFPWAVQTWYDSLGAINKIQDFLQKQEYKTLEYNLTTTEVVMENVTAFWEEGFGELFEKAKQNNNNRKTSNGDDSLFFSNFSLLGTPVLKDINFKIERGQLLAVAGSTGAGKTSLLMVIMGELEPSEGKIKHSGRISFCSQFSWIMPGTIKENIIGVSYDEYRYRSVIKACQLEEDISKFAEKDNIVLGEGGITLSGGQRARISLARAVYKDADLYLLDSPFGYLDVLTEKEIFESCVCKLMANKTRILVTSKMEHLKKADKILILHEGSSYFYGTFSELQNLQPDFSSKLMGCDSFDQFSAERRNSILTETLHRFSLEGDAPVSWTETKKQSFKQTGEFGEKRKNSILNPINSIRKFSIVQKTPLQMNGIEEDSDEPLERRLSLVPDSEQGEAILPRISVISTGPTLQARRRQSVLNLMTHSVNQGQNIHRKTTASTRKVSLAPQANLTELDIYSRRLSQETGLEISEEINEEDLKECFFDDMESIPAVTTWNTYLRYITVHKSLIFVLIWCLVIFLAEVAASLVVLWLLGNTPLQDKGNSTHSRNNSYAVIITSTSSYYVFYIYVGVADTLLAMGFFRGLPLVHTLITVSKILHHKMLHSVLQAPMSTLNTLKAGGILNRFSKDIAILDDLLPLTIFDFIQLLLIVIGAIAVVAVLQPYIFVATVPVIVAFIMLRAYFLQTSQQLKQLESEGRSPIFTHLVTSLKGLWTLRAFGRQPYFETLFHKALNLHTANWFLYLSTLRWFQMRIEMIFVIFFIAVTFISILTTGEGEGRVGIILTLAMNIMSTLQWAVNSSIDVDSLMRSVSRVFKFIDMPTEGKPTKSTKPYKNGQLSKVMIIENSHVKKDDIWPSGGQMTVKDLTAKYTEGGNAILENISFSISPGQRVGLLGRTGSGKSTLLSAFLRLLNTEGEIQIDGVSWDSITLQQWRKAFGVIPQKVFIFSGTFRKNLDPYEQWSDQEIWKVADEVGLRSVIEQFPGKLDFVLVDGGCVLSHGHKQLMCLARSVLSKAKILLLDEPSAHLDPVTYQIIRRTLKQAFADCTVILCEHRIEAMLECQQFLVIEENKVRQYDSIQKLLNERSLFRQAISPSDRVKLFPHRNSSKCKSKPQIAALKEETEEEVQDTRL

For orientation: pEC50 means the EC50 on a negative log10 scale, so that one unit is a factor of ten. Take `COc1ccc2c(c1)O[C@@H](c1cccc(C(=O)O)c1)C[C@H]2NC(=O)C1(c2ccc(Br)cc2)CC1` [Example 43, 3-[(2R,4R)-4-{[1-(4-bromophenyl)cyclopropane-1-carbonyl]amino}-7-methoxy-3,4-dihydro-2H-1-benzopyran-2-yl]benzoic acid]: the pEC50 was 6.55 and the Maximum % activity was determined as 39.1%.

With `COC(=O)c1cccc([C@H]2C[C@@H](NC(=O)[C@@]3(C)CCc4cc(OC)ccc43)c3ccccc3O2)c1` [Example 30, methyl 3-[(2R,4R)-4-{[(1S)-5-methoxy-1-methyl-2,3-dihydro-1H-indene-1-carbonyl]amino}-3,4-dihydro-2H-1-benzopyran-2-yl]benzoate], the negative-log EC50 (pEC50) is 6.02 and the Maximum % activity is listed as 48.4%.

As for “3-{(2R,4R)-4-[2-(2H-1,3-benzodioxol-5-yl)-2-methylpropanamido]-7-methoxy-3,4-dihydro-2H-1-benzopyran-2-yl}benzoic acid [Example 38]”, the pEC50 was 6.80 and the Maximum % activity is 34.4%.

Regarding `COc1ccc2c(c1)O[C@@H](c1ccc(C(=O)O)cc1)C[C@H]2NC(=O)C1(c2cccc(C#N)c2)CC1` [Example 87, 4-[(2R,4R)-4-{[1-(3-cyanophenyl)cyclopropane-1-carbonyl]amino}-7-methoxy-3,4-dihydro-2H-1-benzopyran-2-yl]benzoic acid], the pEC50 is 5.74 and the Maximum % activity turned out to be 46.0%.

For the compound `COc1ccc2c(c1)CC[C@]2(C)C(=O)N[C@@H]1C[C@H](c2ccc(C(=O)O)cc2)Oc2cc(OC)ccc21` [Example 69, 4-[(2R,4R)-7-methoxy-4-{[(1S)-5-methoxy-1-methyl-2,3-dihydro-1H-indene-1-carbonyl]amino}-3,4-dihydro-2H-1-benzopyran-2-yl]benzoic acid], the pEC50 is 7.00 and the Maximum % activity is 66.1%.

For `COc1ccc2c(c1)O[C@@H](c1ccc(C(=O)O)cc1)C[C@H]2NC(=O)C1(c2ccc(F)cc2)CC1` [Example 84, 4-[(2R,4R)-4-{[1-(4-fluorophenyl)cyclopropane-1-carbonyl]amino}-7-methoxy-3,4-dihydro-2H-1-benzopyran-2-yl]benzoic acid], the pEC50 is 6.25 and the Maximum % activity came to 56.2%.

For `COc1ccc2c(c1)OC(c1ccc(OC)c(OC)c1)CC2NC(=O)C(C)(C)Oc1ccc(Cl)cc1` (centres unmarked) [Example 18, 2-(4-chlorophenoxy)-N-[2-(3,4-dimethoxyphenyl)-7-methoxy-3,4-dihydro-2H-1-benzopyran-4-yl]-2-methylpropanamide], the pEC50 was less than 4.70 and the Maximum % activity is 5.5%.

On to `COc1ccc2c(c1)O[C@@H](c1ccc(C(=O)O)cc1)C[C@H]2NC(=O)C(C)(C)c1ccc(F)cc1` [Example 111, 4-{(2R,4R)-4-[2-(4-fluorophenyl)-2-methylpropanamido]-7-methoxy-3,4-dihydro-2H-1-benzopyran-2-yl}benzoic acid], for which the pEC50 is 6.08 and the Maximum % activity came to 47.7%.

For `COc1ccc2c(c1)O[C@@H](c1ccc(C(=O)O)cc1)C[C@H]2NC(=O)C1(c2ccc(OC(F)(F)F)cc2)CC1` [Example 3, 4-[(2R,4R)-7-methoxy-4-({1-[4-(trifluoromethoxy)phenyl]cyclopropane-1-carbonyl}amino)-3,4-dihydro-2H-1-benzopyran-2-yl]benzoic acid], the pEC50 is 5.71 and the Maximum % activity was 106.0%.

As for `COc1ccc2c(c1)CC[C@]2(C)C(=O)N[C@@H]1C[C@H](c2cccc(C(=O)O)c2)Oc2ccccc21` [Example 34, 3-[(2R,4R)-4-{[(1S)-5-methoxy-1-methyl-2,3-dihydro-1H-indene-1-carbonyl]amino}-3,4-dihydro-2H-1-benzopyran-2-yl]benzoic acid], the pEC50 is 6.39 and the Maximum % activity amounted to 52.6%.
